Test results as given in patent publication US20250346550A1, “METHODS OF MODULATING ENDONUCLEASE G USING RESVERATROL AND ITS DERIVATIVES” (THE REGENTS OF THE UNIVERSITY OF COLORADO A BODY CORPORATE, priority 2022, published 2025).
“Also recorded” adds a separate entry of the source.

Columns and labels:
[1] = test system: paternal mitochondrial elimination (PME) in C. elegans wild-type (N2) cross-fertilized embryos; assay: PME fluorescent microscopy assay (MTR-stained paternal mitochondrial clusters), N2 males x N2 hermaphrodites; type: in vivo; conditions: for effect on PME when males were treated: 50 μM pretreatment of males before mating (FIG. 3a, b); for dynamics of PME at different embryonic stages: 50 μM vs 0.25% ethanol mock (FIG. 1g, FIG. 12); for effect on PME: 64-cell embryos (FIG. 1b, d); for effect on PME of the UV-irradiated solution: compound irradiated with UV for 4 hours, 64-cell embryos (FIG. 1e, f); for concentration sufficient to significantly affect PME / concentration showing maximal PME activity: dose series (FIG. 7a, b); for concentration sufficient to significantly affect PME: cis: inhibition, 64-cell, trans: enhancement, 16-cell; for concentration showing maximal PME activity: cis: inhibitory, trans: enhancing
Description: FIG. 1. […] The numbers of MTR-stained paternal mitochondrial clusters in 64-cell cross-fertilized embryos from mating of MTR-stained N2 males with N2 hermaphrodites in the presence of the indicated compounds (100 μM) were scored. n≥15 embryos for each compound. b, d-g, Quantification of MTR-stained paternal mitochondrial clusters in 64-cell stage embryos (b, d-f) or in embryos at the indicated stage (g) from the cross between MTR-stained N2 males and N2 hermaphrodites, in the presence of 0.25% ethanol (Mock) or 50 μM of the indicated compound. In each experiment, n>40 embryos (b,d,e), n=20 embryos (f), and n≥10 embryos (g) were scored, respectively. […] Data are mean±s.e.m. **P<0.01, ***P<0.001; n.s., not significant, two-sided, unpaired t-test.
FIG. 7. Effects of different dosages of resveratrol isomers on PME. a, b, The effects of different dosages of cis-resveratrol (a) and trans-resveratrol (b) on PME. The numbers of MTR-stained paternal mitochondrial clusters in 64-cell embryos (a) or 16-cell embryos (b) from mating of MTR-stained N2 males with N2 hermaphrodites in the presence of the indicated concentrations of resveratrol isomers were scored. […] N2 hermaphrodites and MTR-stained uaDf5/+ males were mated as indicated in the presence of 0.25% ethanol (Mock, d), 50 μM trans-resveratrol (e), or 50 μM cis-resveratrol (f). Males also carried smIs42, an integrated Psur-5sur-5::gfp transgene, which directs GFP expression in all somatic cells in most developmental stages, and was used to track cross progeny. A single cross-fertilized embryo or larva (MTR- or GFP-positive) at the indicated stage was analyzed by PCR. uaDf5/+ and N2 hermaphrodites were controls.
FIG. 12. […] Quantification of MTR-stained paternal mitochondrial clusters at the indicated embryonic stages from the cross between MTR-stained N2 males and N2 hermaphrodites, in the presence of 0.25% ethanol (Mock) or 50 μM of the indicated compound. In each experiment, n≥10 embryos embryos. Data are mean±s.e.m. **P<0.01, ***P<0.001; n.s., not significant, two-sided, unpaired t-test.
Following fertilization, paternal mitochondria are rapidly depolarized and damaged in fertilized eggs, which could generate and release reactive oxygen species (ROS) that affect PME and embryo development. We thus screened twelve small molecules derived from natural products that have been used as antioxidants for the potential activity in modulating PME (FIG. 6a), using a fluorescent microscopy assay. In this assay, C. elegans wild-type (N2) males prestained with Mitotracker Red (MTR), a mitochondrion-specific fluorescent dye, were mated with unstained N2 hermaphrodites in the presence of the compound of interest ([…]) and the cross-fertilized embryos were examined for the presence of MTR-stained paternal mitochondria or mitochondrial clusters.

[2] = test system: PME defect of lgg-1(bp523) embryos (autophagy pathway); assay: PME microscopy assay in lgg-1(bp523) crosses; type: in vivo, C. elegans; conditions: 50 μM, 64-cell embryos (FIG. 3c)
Description: The numbers of MTR-stained paternal mitochondrial clusters in embryos at 64-cell (a) or 16-cell (b) stage from the indicated crosses were scored. N2 males or hermaphrodites were pretreated with 0.25% ethanol (Mock), 50 μM cis-resveratrol (a), or 50 μM trans-resveratrol (b) as indicated before mating. c-g, Quantification of MTR-stained paternal mitochondrial clusters in 64-cell embryos from the indicated crosses treated with 0.25% ethanol (Mock), 50 μM cis-resveratrol, and 50 μM trans-resveratrol, respectively. Alleles used are lgg-1(bp523), cps-6(tm3222) and rad-23(tm2595).
The numbers of MTR-stained paternal mitochondrial clusters were scored as in FIG. 1a. cps-6(tm3222) and lgg-1(bp523) alleles were used in the assays. Data are mean±s.e.m. n=20 embryos (b) and 15 embryos (c) in each experiment. **P<0.01; ***P<0.001; n.s., not significant, two-sided, unpaired t-test.
To investigate how these six compounds might affect PME, the present inventors performed chemical genetic analysis to analyze the PME pathways that might be affected by the compounds. The present inventors first examined whether they might affect the paternal PME pathway mediated by the mitochondrial endonuclease CPS-6, whose activity is inhibited by oxidation and protected by reducing agents.

[3] = test system: germline tumor in daf-16(mu86); cki-2(ok2105); glp-1(ar202) mutant (ET507); assay: germline tumor model (ET507); type: in vivo, C. elegans; conditions: 200 μM, ET507 animals at 20° C.; for tumor size: adult day 5, vs 1% ethanol; for tumor occurring frequency: vs 1% ethanol
Description: FIG. 9. Cis-resveratrol inhibits and trans-resveratrol promotes germline tumor formation. Tumor size and tumor occurring frequency of the daf-16(mu86); cki-2(0k2105); glp-1 (ar202) mutant grown at 20° C. and treated with 1% ethanol (Mock), 200 μM cis-resveratrol (Cis), and 200 μM trans-resveratrol (Trans), respectively, are shown. Tumor assays were performed in triplicate with 100 animals per replicate. a, A five-stage classification was created to measure the tumor size in adult day 5 animals under the Normaski optic. Score 1 denotes the normal gonads seen in wild-type animals. Score 5 denotes enlarged gonads full of mitotic germ cells and without any egg or oocyte. Score 2-4 denote partially enlarged gonads. b, Tumor frequency indicates the percentage of animals with enlarged gonads (score 5). Data from three independent biological replicates are shown as mean±SEM. *P<0.05; **P<0.01; ***P<0.001, two-sided, unpaired t-test.
FIG. 14. stabilized cis-resveratrol inhibits germline tumor formation as well as cis-resveratrol. Tumor occurring frequency of the daf-16 (mu86); cki-2 (0k2105); glp-1 (ar202) mutant (ET507) grown at 20° C. and treated with 0.25% ethanol (Mock), 100 μM cis-resveratrol, and 100 μM Stabilized cis-resveratrol, respectively, are shown. Tumor assays were performed in triplicate with 100 animals per replicate. Data are mean±s.e.m. ****P<0.001, two-sided, unpaired t-test
The present inventors tested whether resveratrol isomers affect tumorigenesis in a C. elegans germline tumor model (ET507), in which three cell growth genes, daf-16, cki-2, and glp-1, are mutated, leading to uncontrolled germ cell proliferation and germline tumor.

Compound	effect on PME when males were treated [1]	dynamics of PME at different embryonic stages [1]	effect on PME ([1]; 50 μM)	effect on PME when only hermaphrodites were treated ([1]; 50 μM, males mock treated (FIG. 3a))	effect on PME of the UV-irradiated solution ([1]; 50 μM)	concentration sufficient to significantly affect PME [1] [µM]	concentration showing maximal PME activity [1] [µM]	average paternal mitochondrial clusters in 64-cell embryos ([1]; freshly prepared, 50 μM (FIG. 1d)) [clusters]	effect on PME defects of the lgg-1(bp523) mutant [2]	tumor size [3]	tumor occurring frequency [3]
Oc1ccc(/C=C\c2cc(O)cc(O)c2)cc1 [cis-resveratrol]	PME was suppressed	blocked rapid elimination of paternal mitochondria	inhibited PME better than the aged trans-resveratrol	PME proceeded normally	reduced PME inhibitory activity	1	50	16	enhanced	reduces	reduces
Oc1ccc(/C=C/c2cc(O)cc(O)c2)cc1 [trans-resveratrol, 3,5,4′-trihydroxy-trans-stilbene]	only acted through males to enhance PME	accelerated elimination of paternal mitochondria; also recorded: identical activity in promoting PME	did not inhibit PME	–	acquired the activity to inhibit PME	25	50	–	suppressed	increases	increases
